Converted amounts (≈) assume the structure as drawn. Where two headings read alike, the source gives them in different places.
Tests used:
[1] = test system: S-adenosylhomocysteine hydrolase (AdoHcy-ase); assay: Inhibition of S-adenosylhomocysteine hydrolase; type: biochemical
[2] = test system: HCMV (human cytomegalovirus); assay: microbe, parasite or virus in culture; type: cell-based; settings: for EC50: read-out: EC50
[3] = test system: HCMV (human cytomegalovirus); assay: microbe, parasite or virus in culture; type: cell-based
From the text: | ^f plaque reduction assay.

[4] = Cytotoxicity in EBV host cells (Daudi); type: cell-based; settings: human, Table 3, Daudi
[5] = test system: adenosine deaminase (ADA); assay: Adenosine deaminase studies (deamination by ADA); type: biochemical
Description: (§1) At timed intervals, 50 µl aliquots were quenched with 450 μl water containing the ADA inhibitor deoxycoformycin (4 μM). Hydrolysis kinetics of 4 were followed by high performance liquid chromatography (HPLC) with on-the-fly UV spectral characterization of all chromatographic components. […] The hydrolysis rate constant (k/ADA) and t^1/2 of decay or formation were obtained using GraphPAD Inpiot curve fitting program.

[6] = Adenosine deaminase studies (deamination by ADA); type: biochemical; settings: adenosine deaminase; 50 μM compound; 1.0 unit ADA; 37° C., pH 7.1; read-out: t1/2 of deamination
Description: as §1

[7] = Cytotoxicity in growing (rapidly dividing) HFF; type: cell-based, human; settings: human, growing hff cells; Table 3; Growing HFF; read-out: CC50
[8] = test system: Growing HFF; assay: Cytotoxicity in growing (rapidly dividing) HFF; type: cell-based, human; settings: in words; rapidly proliferating vs stationary cells
[9] = Cytotoxicity in host cells / stationary cells (HFF); type: cell-based, human; settings: human, hff cells
From the text: ^d CC50 = cytotoxic concentration in μg/mL that produces 50%

[10] = test system: HSV-2 (herpes simplex type 2); assay: microbe, parasite or virus in culture; settings: for EC50: HSV-2
From the text: (§2) Compounds 25 and 26 are (S)-methanocarba-T and (±)-(carba-T), respectively. (±)-carba-T was kindly provided by Dr. Y. Fulmer Shealy, Southern Research Institute, Birmingham, Ala. [drawing 5]

[11] = test system: HSV-1 (herpes simplex type 1); assay: microbe, parasite or virus in culture; settings: for EC50: HSV-1
From the text: as §2

[12] = test system: EBV (Epstein-Barr virus); assay: microbe, parasite or virus in culture; type: cell-based; settings: for EC50: human gammaherpesvirus 4, read-out: EC50
From the text: as §2

[13] = in words, listed as (N)-methanocarba-A

Structure (SMILES): Nc1ncnc2c1ncn2[C@H]1C[C@H](O)[C@]2(CO)C[C@H]12 [Compound 4, (1 R,2S,4S,5S)-1-Hydroxymethyl-2-hydroxM-4-(6-amino-9-purinyl)bicyclo[3.1.0]hexane]
- inhibition ([1]; at 100 μM): 20%
- inhibition ([1]; at 100 FM concentration (so in the source)): 20%
- activity against AdoHcy-ase ([1]; in words): very low
- SI (CC50/EC50) [2]: > 32.2
- potency against HCMV relative to gancyclovir ([2]; HCMV): only ten fold less potent than gancyclovir
- antiviral selectivity ([2]; HCMV, compared with gancyclovir, in words): superibor to that of gancyclovir
- EC50 ([2]; Human betaherpesvirus 5, Table 3, HCMV, HFF): 3.1 µg/mL (≈ 11.9 µM)
- EC50 ([2]; Human betaherpesvirus 5, Table 5, HCMV): 3.1 µg/mL (≈ 11.9 µM)
- EC50 ([2]; Human betaherpesvirus 5, text, HCMV): 3.1 µg/mL (≈ 11.9 µM)
- activity against HCMV [2, 13]: exhibited antiviral effects against Human CMV, EBV and HSV-2
- EC50 ([3]; Human betaherpesvirus 5, Table 5, HCMV, plaque reduction assay, read-out: EC50): 5.6 µg/mL (≈ 21.4 µM)
- SI (CC50/EC50) ([3]; human foreskin fibroblasts): > 17.9
- CC50 [4]: > 100 µg/mL
- time to complete deamination ([5]; 50 μM compound, 1.0 unit ADA, 37° C., pH 7.1): 30 min
- deamination by ADA ([5]; in words): complete deamination
- half-life at 50 µM [6]: 3.2 min
- CC50 [7]: > 100 µg/mL
- cytotoxicity to rapidly dividing cells [8]: equally non-toxic to rapidly proliferating cells and stationary cells
- CC50 ([9]; Table 3, HFF): > 100 µg/mL
- CC50 ([9]; Table 5, host cell not given): > 100 µg/mL
- SI (CC50/EC50) [10]: > 7.2
- EC50 ([10]; Human alphaherpesvirus 2, Table 3, HFF): 13.9 µg/mL (≈ 53.2 µM)
- EC50 ([10]; Human alphaherpesvirus 2, Table 5): 13.9 µg/mL (≈ 53.2 µM)
- activity against HSV-2 [10, 13]: exhibited antiviral effects against Human CMV, EBV and HSV-2
- SI (CC50/EC50) [11]: > 1.4
- EC50 ([11]; Human alphaherpesvirus 1, Table 3, HFF): 72 µg/mL (≈ 276 µM)
- EC50 ([11]; Human alphaherpesvirus 1, Table 5): 72 µg/mL (≈ 276 µM)
- activity against HSV-1 ([11]; in words): weak level of activity
- SI (CC50/EC50) [12]: > 66.7
- anti-EBV activity relative to acyclovir ([12]; EBV): only fifteen fold weaker than acyclovir
- EC50 ([12]; EBV): 1.5 µg/mL (≈ 5.74 µM)
- EC50 ([12]; Table 3, EBV, Daudi, viral capsid antigen): 1.5 µg/mL (≈ 5.74 µM)
- activity against EBV [12, 13]: exhibited antiviral effects against Human CMV, EBV and HSV-2

From patent US5840728A, “Conformationally locked nucleoside analogs as antiherpetic agents” (priority 1997, dated 1998)
